Source: article PMC10303271, “Synthesis and Receptor Binding Studies of α5 GABAAR Selective Novel Imidazodiazepines Targeted for Psychiatric and Cognitive Disorders” (Molecules, 2023)
Read-outs that look alike come from different tables or passages of the source.

What was measured:
[1] = biological target: T1, A2A (Homo sapiens, UniProt P29274); assay: PDSP primary binding A2A; conditions: primary binding, 10,000 nM; last figure of the line = mean of the 4 before it
T1 construct: purchased NIMH Psychoactive Drug Screening Program (PDSP)
T1 sequence (P29274 whole entry): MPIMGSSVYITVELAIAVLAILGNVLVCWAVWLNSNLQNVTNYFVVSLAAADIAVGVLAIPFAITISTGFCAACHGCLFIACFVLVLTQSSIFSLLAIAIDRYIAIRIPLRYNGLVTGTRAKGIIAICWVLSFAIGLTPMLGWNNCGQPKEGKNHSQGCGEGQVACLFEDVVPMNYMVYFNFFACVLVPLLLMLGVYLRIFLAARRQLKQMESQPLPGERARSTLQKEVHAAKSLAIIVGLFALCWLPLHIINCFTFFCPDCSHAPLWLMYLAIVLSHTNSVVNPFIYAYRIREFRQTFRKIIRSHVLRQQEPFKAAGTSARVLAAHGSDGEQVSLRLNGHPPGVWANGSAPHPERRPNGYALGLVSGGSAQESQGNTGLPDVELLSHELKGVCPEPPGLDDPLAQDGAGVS
Procedure: (§1) To determine if any off-target receptor-binding effects are present, all the novel ligands were sent to the National Institute of Mental Health (NIMH), Psychoactive Drug Screening Program (PDSP). The ligands were screened over a panel of 47 receptors, ion channels, and transporters to determine any other possible interactions with […]. The hERG-binding was also determined. […] No binding of the test compounds to calcium channels was observed. […] It is necessary to screen the compounds for hERG-binding during the early process of drug discovery. The unintentional binding of many drugs to hERG can cause blockade of hERG K+ channels in the heart, which can cause many side effects including cardiac arrhythmias and sudden death. […] All of the α5 imidazodiazepines were tested for hERG-binding.
(§2) The NIMH PDSP assay protocol book [https://kidbdev.med.unc.edu/databases/PDSP%20Protocols%20II%202013-03-28.pdf accessed on 23 April 2023]. describes the protocols for primary and secondary radio-ligand binding assays. These assays were carried out in a final volume of 125 µL per well in the appropriate binding buffer.
(§3) The binding of a ligand to a receptor, ion channel, or transporter was determined in the […] of 10 µM of the appropriate reference compound. […] Plates were incubated in the dark for 90 min at rt, and the reactions were stopped by vacuum filtration onto 0.3% polyethyleneimine (PEI) soaked 96-well filter mats using a 96-well Filtermateharvester. This was followed by three washes with cold PBS buffer. Radioactivity was then counted on a Microbeta counter. Nonlinear regression was used to analyze the data with N = 6 replicates.

[2] = biological target: T2, M1 (Homo sapiens, UniProt P11229); assay: PDSP primary binding M1; conditions: primary binding, 10,000 nM; last figure of the line = mean of the 4 before it; read-out: M1, PDSP raw data, mean
T2 construct: purchased NIMH Psychoactive Drug Screening Program (PDSP)
T2 sequence (P11229 1-460): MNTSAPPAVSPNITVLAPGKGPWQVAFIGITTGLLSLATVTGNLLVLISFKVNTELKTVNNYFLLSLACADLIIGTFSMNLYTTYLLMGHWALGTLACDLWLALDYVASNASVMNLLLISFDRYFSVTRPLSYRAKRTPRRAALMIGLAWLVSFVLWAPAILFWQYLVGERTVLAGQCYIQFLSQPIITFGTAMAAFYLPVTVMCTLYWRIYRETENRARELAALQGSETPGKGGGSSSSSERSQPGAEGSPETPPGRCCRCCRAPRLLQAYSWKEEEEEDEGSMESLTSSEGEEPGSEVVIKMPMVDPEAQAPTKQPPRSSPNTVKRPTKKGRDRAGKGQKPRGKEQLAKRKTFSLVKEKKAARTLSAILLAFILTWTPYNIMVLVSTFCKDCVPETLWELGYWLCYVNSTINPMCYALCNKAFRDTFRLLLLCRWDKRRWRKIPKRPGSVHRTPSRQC
Procedure: as §1, §2, §3

[3] = biological target: T3, M5 (Homo sapiens, UniProt P08912); assay: PDSP primary binding M5; conditions: primary binding, 10,000 nM; last figure of the line = mean of the 4 before it; read-out: M5, PDSP raw data, mean
T3 construct: purchased NIMH Psychoactive Drug Screening Program (PDSP)
T3 sequence (P08912 1-532): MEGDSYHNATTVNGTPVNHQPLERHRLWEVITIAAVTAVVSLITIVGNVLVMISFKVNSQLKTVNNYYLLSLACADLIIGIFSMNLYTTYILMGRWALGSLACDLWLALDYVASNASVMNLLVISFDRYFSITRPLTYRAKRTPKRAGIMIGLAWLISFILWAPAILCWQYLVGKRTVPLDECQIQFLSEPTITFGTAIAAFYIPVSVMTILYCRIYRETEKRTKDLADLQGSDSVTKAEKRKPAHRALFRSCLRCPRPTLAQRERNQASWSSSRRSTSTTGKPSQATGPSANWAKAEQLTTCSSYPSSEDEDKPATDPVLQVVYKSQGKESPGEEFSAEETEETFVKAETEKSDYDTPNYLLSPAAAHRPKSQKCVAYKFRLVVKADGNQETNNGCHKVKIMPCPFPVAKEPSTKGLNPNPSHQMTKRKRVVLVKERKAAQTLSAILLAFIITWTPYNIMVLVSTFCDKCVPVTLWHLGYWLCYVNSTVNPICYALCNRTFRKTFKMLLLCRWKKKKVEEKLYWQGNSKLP
Procedure: as §1, §2, §3

[4] = biological target: T4, H2 (Homo sapiens, UniProt P25021); assay: PDSP primary binding H2; conditions: primary binding, 10,000 nM; last figure of the line = mean of the 4 before it; read-out: H2, PDSP raw data, mean
T4 construct: purchased NIMH Psychoactive Drug Screening Program (PDSP)
T4 sequence (P25021 whole entry): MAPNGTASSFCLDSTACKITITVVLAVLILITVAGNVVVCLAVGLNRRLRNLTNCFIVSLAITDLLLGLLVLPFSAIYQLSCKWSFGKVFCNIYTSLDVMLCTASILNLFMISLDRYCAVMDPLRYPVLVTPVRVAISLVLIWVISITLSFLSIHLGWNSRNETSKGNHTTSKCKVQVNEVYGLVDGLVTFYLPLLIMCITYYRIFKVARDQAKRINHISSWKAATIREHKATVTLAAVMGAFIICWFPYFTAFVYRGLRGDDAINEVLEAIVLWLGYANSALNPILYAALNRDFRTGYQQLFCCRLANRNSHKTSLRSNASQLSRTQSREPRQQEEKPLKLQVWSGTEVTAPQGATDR
Procedure: as §1, §2, §3

[5] = test system: NMDA; assay: PDSP primary binding NMDA; conditions: primary binding, 10,000 nM; last figure of the line = mean of the 4 before it
Procedure: as §1, §2, §3

[6] = biological target: T5, 5-HT1D (Homo sapiens, UniProt P28221); assay: PDSP primary binding 5-HT1D; conditions: 1.5 h; primary binding, 10,000 nM; last figure of the line = mean of the 4 before it; read-out: 5-HT1D, PDSP raw data, mean
T5 construct: purchased NIMH Psychoactive Drug Screening Program (PDSP)
T5 sequence (P28221 whole entry): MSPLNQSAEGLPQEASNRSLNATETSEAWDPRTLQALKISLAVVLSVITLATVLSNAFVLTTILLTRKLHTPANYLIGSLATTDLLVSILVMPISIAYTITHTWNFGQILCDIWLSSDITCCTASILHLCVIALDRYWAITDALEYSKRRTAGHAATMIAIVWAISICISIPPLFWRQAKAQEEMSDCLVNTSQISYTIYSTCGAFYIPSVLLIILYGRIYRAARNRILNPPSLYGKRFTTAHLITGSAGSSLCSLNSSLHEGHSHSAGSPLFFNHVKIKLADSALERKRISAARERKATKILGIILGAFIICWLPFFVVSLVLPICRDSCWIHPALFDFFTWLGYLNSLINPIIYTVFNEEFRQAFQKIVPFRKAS
Procedure: as §1, §2, §3

[7] = biological target: T6, DOR (Homo sapiens, UniProt P41143); assay: PDSP radioligand binding at DOR
T6 construct: purchased NIMH Psychoactive Drug Screening Program (PDSP)
T6 sequence (P41143 whole entry): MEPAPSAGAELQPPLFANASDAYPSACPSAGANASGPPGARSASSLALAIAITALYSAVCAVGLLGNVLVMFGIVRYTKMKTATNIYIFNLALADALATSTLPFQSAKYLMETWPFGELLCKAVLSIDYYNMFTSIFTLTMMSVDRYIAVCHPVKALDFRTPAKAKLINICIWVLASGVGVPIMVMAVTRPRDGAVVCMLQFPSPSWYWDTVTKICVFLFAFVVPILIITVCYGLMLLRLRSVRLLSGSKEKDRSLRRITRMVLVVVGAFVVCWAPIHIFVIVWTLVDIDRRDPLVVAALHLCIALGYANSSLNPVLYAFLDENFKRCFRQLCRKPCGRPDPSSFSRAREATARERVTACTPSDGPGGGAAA
Description: Opioid receptors are a family of inhibitory G-coupled protein receptors where opioids act as the ligand. The kappa opioid receptors (KOR), µ and δ opioid receptors (MOR and DOR), and nociception opioid receptor (NOP) fall under the family of opioids receptors. It has been reported that oxadiazole imidazodiazepines can mediate analgesic and anti-inflammatory properties mediated also by the κ opioid receptor (KOR). The binding at KOR is usually silent. The affinities of the test compounds for KOR, DOR, and MOR were determined using radioligand binding assays at a screening concentration of 10,000 nM in collaboration with the National Institute of Mental Health’s Psychoactive Drug Screening Program (PDSP), as mentioned before. Concentration-dependent experiments were conducted to determine Ki values for the compounds that exceeded more than 50% radioligand displacement in primary binding assays.
as §2, §3

[8] = biological target: T7, M3D (Homo sapiens, UniProt P20309, A239G/Y149C); assay: PDSP primary binding M3D; conditions: primary binding, 10,000 nM; last figure of the line = mean of the 4 before it; read-out: M3D, PDSP raw data, mean
T7 construct: purchased NIMH Psychoactive Drug Screening Program (PDSP)
T7 sequence (P20309 whole entry Y149C/A239G): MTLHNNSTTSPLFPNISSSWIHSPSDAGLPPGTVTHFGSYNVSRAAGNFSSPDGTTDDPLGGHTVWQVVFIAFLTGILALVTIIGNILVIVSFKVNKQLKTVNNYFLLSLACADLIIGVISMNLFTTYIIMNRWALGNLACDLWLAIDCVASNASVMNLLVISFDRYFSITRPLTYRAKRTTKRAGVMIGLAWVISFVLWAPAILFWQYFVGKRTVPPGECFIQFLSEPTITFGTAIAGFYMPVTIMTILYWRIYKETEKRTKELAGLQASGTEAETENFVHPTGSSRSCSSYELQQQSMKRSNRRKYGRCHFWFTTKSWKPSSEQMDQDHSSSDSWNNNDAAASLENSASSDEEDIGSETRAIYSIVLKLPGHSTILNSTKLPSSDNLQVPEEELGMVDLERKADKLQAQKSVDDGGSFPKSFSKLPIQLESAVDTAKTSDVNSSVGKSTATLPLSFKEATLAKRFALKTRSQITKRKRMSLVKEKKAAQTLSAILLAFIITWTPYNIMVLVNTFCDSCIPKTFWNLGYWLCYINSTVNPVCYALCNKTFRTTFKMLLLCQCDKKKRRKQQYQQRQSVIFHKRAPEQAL
Procedure: as §1, §2, §3

[9] = test system: AMPA; assay: PDSP primary binding AMPA; conditions: primary binding, 10,000 nM; last figure of the line = mean of the 4 before it
Procedure: as §1, §2, §3

[10] = at 10,000 nM, N = 5, [3H]-DADLE 2.69 nM, read-out: Primary Binding %DOR
[11] = primary binding, 10,000 nM, last figure of the line = mean of the 4 before it, read-out: DOR, PDSP raw data, mean

Compound | A2A, PDSP raw data, mean [1] | inhibition at 10 µM [2] | inhibition at 10 µM [3] | inhibition at 10 µM [4] | NMDA, PDSP raw data, mean [5] | inhibition at 10 µM [6] | inhibition at 10 µM [7, 10] | inhibition at 10 µM [7, 11] | inhibition at 10 µM [8] | AMPA, PDSP raw data, mean [9]
C#Cc1ccc2c(c1)C(c1ccccn1)=N[C@@H](C)c1c(C(=O)NC)ncn1-2 [Compound 23, (S)-8-Ethynyl-N,4-dimethyl-6-(pyridin-2′-yl)-4H-benzo[f]imidazo[1,5-a][1,4]diazepine-3-carboxamide] | -9.74% | -12% | -13.6% | -23.3% | 89.17% | -15.1% | 14.9 ± 8.84% | 14.9% | 9.08% | -17.23%
C[C@H]1N=C(c2ccccc2F)c2cc(-c3ccccc3)ccc2-n2cnc(C(=O)N(C)C)c21 [Compound 5, (R)-6-(2′-Fluorophenyl)-N,N,4-trimethyl-8-phenyl-4H-benzo[f]imidazo[1,5-a][1,4]diazepine-3-carboxamide] | 11.57% | -1.6% | -0.76% | -1.42% | 43.17% | -3.41% | 43 ± 7.83% | 43% | 4.84% | 7.77%
CCc1noc(-c2ncn3c2CN=C(c2ccccc2F)c2cc(C4CC4)ccc2-3)n1 [Compound 44, 5-(8-Cyclopropyl-6-(2′-fluorophenyl)-4H-benzo[f]imidazo[1,5-a][1,4]diazepin-3-yl)-3-ethyl-1,2,4-oxadiazole] | 21.36% | 9.28% | -14.1% | 1.55% | 20.03% | 67.4% | 81.3 ± 4.76% | 81.3% | 11.8% | -9.33%
CCc1noc(-c2ncn3c2[C@@H](C)N=C(c2ccccc2F)c2cc(C4CC4)ccc2-3)n1 [Compound 46, (R)-5-(8-Cyclopropyl-6-(2′-fluorophenyl)-4-methyl-4H-benzo[f]imidazo[1,5-a][1,4]diazepin-3-yl)-3-ethyl-1,2,4-oxadiazole] | 27.25% | 0.86% | 5.69% | 6.98% | 66.04% | 17.7% | – | 67.3% | 9.97% | 0.81%
C#Cc1ccc2c(c1)C(c1ccccn1)=N[C@@H](C)c1c(C(=O)N(C)C)ncn1-2 [Compound 31, (S)-8-Ethynyl-N,N,4-trimethyl-6-(pyridin-2′-yl)-4H-benzo[f]imidazo[1,5-a][1,4]diazepine-3-carboxamide] | -10.83% | -20% | -11.8% | -12.1% | 17.3% | -15% | 6.18 ± 11.2% | 6.18% | 6.59% | -10.56%
CC(C)c1noc(-c2ncn3c2[C@@H](C)N=C(c2ccccc2F)c2cc(Cl)ccc2-3)n1 [Compound 37, (R)-5-(8-Chloro-6-(2′-fluorophenyl)-4-methyl-4H-benzo[f]imidazo[1,5-a][1,4]diazepin-3-yl)-3-isopropyl-1,2,4-oxadiazole] | -1.87% | -0.48% | -4.88% | 1.66% | 54.13% | 9.73% | 31.9 ± 9.58% | 31.9% | -23.4% | 20.59%
